Measurements from patent US8063059B2, “Use of compositions containing kappa-opioid receptor antagonists for the treatment of dissociative disorders” (Emodys GmbH, priority 2006, dated 2011).

Key:
[1] = tested on: patient diagnosed with post traumatic stress disorders; test: Medical Application Example 1: buprenorphine in a patient with post traumatic stress disorders; type: in vivo, human; details: one patient
Protocol: Buprenorphine in the form of a tablet with an active ingredient content of 12 mg was administered sublingually to a patient diagnosed with post traumatic stress disorders with the corresponding psychiatric symptoms.

[2] = tested on: patient diagnosed with emotionally unstable personality disorder; test: Medical Application Example 3: buprenorphine in patients with emotionally unstable personality disorder; type: in vivo, human
Protocol: In medical application examples 3 and 4 buprenorphine, alone or in conjunction with a kappa-opioid receptor antagonist, is used for patients diagnosed with emotionally unstable personality disorder as a possibility for treating the personality disorder and reducing the associated social, somatic and psychiatric consequences.
Buprenorphine was administered as a mucoadhesive sachet with an active ingredient content of 12 mg to a patient diagnosed with emotionally unstable personality disorder.

[3] = one year following the start of treatment

2-(N-cyclopropylmethyl-4,5alpha-epoxy-3-hydroxy-6-methoxy-6,14-endoethanomorphinan-7alpha-yl)-3,3-dimethyl-2-butanol [Buprenorphine]
flashback symptoms and daily life intrusions [1, 3]: significant improvement | lethargy and emotional swings, intrusive dissociation sensations (patient-indicated) [1, 3]: clear subjective improvement | occurrence of flashback situations ([1]; sublingual tablet, daily dosage increased from 12 mg to 16 mg): decrease significantly | self-injuries after one year ([2]; one patient, daily ingestion of 12 mg, after one year): complete lack of self-injuries | self-injuring behaviour ([2]; one patient, mucoadhesive sachet, 12 mg): complete remission | frequency of self-cutting ([2]; two other patients): significant reduction
